Positions of bridges follow the written chain, without caps; N, C: chain ends. Non-standard residues stand in square brackets, D forms with d. Residues, ends and D or L forms follow the SMILES beside them. *: point of attachment. Ileψ(thiazoline)Cys = CC[C@H](C)[C@H](N)C1=N[C@H](C(=O)*)CS1; dOrn = NCCC[C@@H](N)C(=O)O
Assays:
[1] = Growth promotion in chicks, Example XI (Table V); format: in vivo, broiler cross chicks; conditions: for feed efficiency (in words) / growth rate (in words): 25 g/T; for Average 4 Week Performance: Feed Efficiency / Average 4 Week Performance: Gain / Improved Response Over Basal Ration: Feed Efficiency / Improved Response Over Basal Ration: Gain: 25 g/T in basal ration, 4 weeks
Source text: (§1) This example compares growth promotion activity of the product of Example I with other growth promotants at a concentration of 25 g/T in the Basal Ration described in Example VII. The other growth promotants include the product described in Example I of U.S. Pat. No. 3,542,784 -- Burch and quinoxaline-1,4-dioxide. Day old broiler cross chicks were weight equalized into groups of eight chicks each, and four replicates of eight chicks each were fed the experimental rations over a 4 week period.
The growth promotion tests described in Example X were repeated with the exception that five replicates of eight chicks each were fed the formulations described in Table V for 4 weeks.

[2] = Growth promotion in chicks at low feed levels, Example VIII (Table II); format: in vivo, broiler cross chicks; conditions: 4 g/T in basal ration; 4 weeks
Source text: Day old broiler cross chicks were weight equalized into groups of eight chicks each and were placed in battery brooders. The 32 chick treatment groups (four replicates) were fed one of the five rations described below for a 4 week period. Weekly measurements of body weights and feed consumption were made by replicate, and these measurements used to calculate weight gain and feed efficiency.
The basal ration was the basal ration used in Example VII above. The remaining five rations were obtained by mixing the indicated quantities of bacitracin (4 g/T), chlortetracycline (10 g/T), product of Example I (10 g/T), and product of Example III of U.S. Pat. No. 3,542,784 -- Burch (10 g/T) as growth promotants with the basal ration.

[3] = Growth promotion and feed efficiency in chicks, Example VII (Table I); format: in vivo, broiler cross chicks; conditions: bacitracin 4 g/T alone in basal ration (negative control); 4 weeks
Source text: One hundred 20 day-old broiler cross chicks were weight equalized into 15 groups of eight chicks each and placed in battery brooders. The 40 chick treatment groups (five replicates) were fed the one of the three rations described below for a 4 week period. Weekly measurements of body weights and feed consumption were made by replicate, and these measurements used to calculate weight gain and feed efficiency.
The commercial type broiler starter basal ration which was used in this study was designated as the Basal Ration, and had the following composition:
The preceding basal ration was mixed with bacitracin at a level of 4 g/T as the only growth stimulant to simulate commercial practice. This mixture was designated as the Basal Ration + Bacitracin (4 g/T) and constituted the negative control in this study.
A second ration was prepared by fortifying the Basal Ration + bacitracin described above with the Product from Example I above at a level of 200 g/T, and was designated as Basal Ration + Bacitracin + Product of Example I (200 g/T). A third ration was prepared by fortifying the Basal Ration + bacitracin described above with chlortetracycline (CTC) at a level of 200 g/T, and was designated as Basal Ration + Bacitracin + Chlortetracycline (200 g/T). Chlortetracycline served as the positive control in this test because it had shown strong growth promotion in numerous previous tests at this therapeutic level.
The commercial value of the product of Example I is indicated by the fact that these significant responses were obtained in addition to the growth stimulation provided by the presence of bacitracin in the ration. It is important to note that the negative controls in this example and in Examples VIII and X which follow were characterized by rapid rates of growth. This high plane of growth and feed efficiency performance on the part of the negative controls makes the responses to the test compounds all the more meaningful.
The term "growth promotion" is used herein to describe the beneficial effect of a compound in eliciting a more rapid rate of weight gain when compared to the weight gain of control animals not fed the compound. "Feed efficiency" is a term regularly used in animal husbandry and is a measure of the pounds of feed required to produce a pound of gain in the weight of the animal. A lower mathmatical value for feed efficiency reflects improved performance. […] In this case, as in the case of the weight gain (fifth column), an improved performance is indicated by a higher positive number.

Salmonella gallinarum = assay: Bactericide test, Salmonella gallinarum (agar streak plate); format: cell-based; conditions: Salmonella enterica, GALLINARUM, read-out: % Control In Vitro Growth
Source text: (§2) Test formulations were examined for bactericidal and/or bacteriostatic activity against the test organisms shown in Tables A and B. These organisms were chosen as being representative of commercially important pathogens affecting animal agriculture. The antibiotic chlortetracycline was chosen as a positive control, since it has a broad spectrum of activity against a large number of organisms, and its activity can be used for comparative purposes.
(§3) Basic test formulations of the product of Examples I, II, III, and of chlortetracycline were prepared by dissolving 16 mg (0.016 g) in 2.0 ml of stock emulsifier solution (0.25% Triton X-155 in acetone by volume) and making each solution up to 50 ml with deionized water. The concentration of the test compound in the basic formulation was 320 ppm. Lower concentrations of the test compound were obtained by diluting the basic formulation with a 4% solution of the stock emulsifier in deionized water so that each dilution in the series differed only in test compound content.
(§4) Nutrient-tryptic soy agar (NTA) consisting of 2.0% Difco Bactoagar 0.8% nutrient broth (Difco), and 0.5% tryptic soy broth (Difco) was prepared and sterilized by autoclaving. A 2 ml aliquot of each test formulation was added to 8 ml of molten NTA. This mixture was then plated in a sterile polystyrene petri dish (100 × 15 mm). After the agar was set, suspensions of each of the test organisms were simultaneously streaked onto the surface of the agar. The inoculated plates were incubated for 48 hr at 28°C. The inhibition of growth of each organism was rated by visual comparison with the organism developing on non-treated agar. Growth inhibition reported as per cent control was rated in three categories as follows: 0% control, growth equivalent to that on non-treated agar; 50% control, sparse development and separated colonies; 100% control, no visible growth or development of colonies.
(§5) Test formulations of the product of Example IV were examined for bactericidal and/or bacteriostatic activity against the test organisms shown in Table B using the Bactericide Test described in Example V. The inhibition of organism growth with each diluted test formulation was rated visually by comparison with the organism developing on a non-treated control agar plate. Growth inhibition reported as per cent control was rated in three categories as follows: 0% control, growth equivalent to that on non-treated agar; 50% control is sparse development and separated colonies; and 100% control, development of individual colonies was not apparent.

Streptococcus group E = assay: Bactericide test, Streptococcus group E (agar streak plate); format: cell-based; conditions: 100% inhibition at lower concentrations
Source text: as §2, §3, §4

[4] = tested on: Bordetella bronchiseptica; assay: Bactericide test, Bordetella bronchiseptica (agar streak plate); format: cell-based; conditions: 100% inhibition at lower concentrations
Source text: as §2, §3, §4

Salmonella cholerasuis = assay: Bactericide test, Salmonella cholerasuis (agar streak plate); format: cell-based; conditions: Salmonella, read-out: % Control In Vitro Growth
Source text: as §2, §3, §4, §5

Vibrio coli = assay: Bactericide test, Vibrio coli (agar streak plate); format: cell-based; conditions: 100% inhibition at lower concentrations
Source text: as §2, §3, §4

[5] = tested on: Erysipelothrix rhusiopathiae; assay: Bactericide test, Erysipelothrix rhusiopathiae (agar streak plate); format: cell-based; conditions: 100% inhibition at lower concentrations
Source text: as §2, §3, §4

Streptococcus agalactiae = assay: Bactericide test, Streptococcus agalactiae (agar streak plate); format: cell-based; conditions: 100% inhibition at lower concentrations
Source text: as §2, §3, §4

Streptococcus faecalis = assay: Bactericide test, Streptococcus faecalis (agar streak plate); format: cell-based; conditions: 100% inhibition at lower concentrations
Source text: as §2, §3, §4, §5

[6] = Growth promotion in chicks at 25 g/T, Example X (Table IV); format: in vivo, broiler cross chicks
Source text: as §1

[7] = 25 g/T in basal ration, 4 weeks

CC[C@H](C)[C@H](N)C1=N[C@H](C(=O)N[C@@H](CC(C)C)C(=O)N[C@H](CCC(=O)O)C(=O)N[C@H](C(=O)N[C@H]2CCCCNC(=O)[C@H](CC(N)=O)NC(=O)[C@@H](CC(=O)O)NC(=O)[C@H](Cc3cnc[nH]3)NC(=O)[C@@H](Cc3ccccc3)NC(=O)[C@H]([C@@H](C)CC)NC(=O)[C@@H](CCCN)NC2=O)[C@@H](C)CC)CS1 [Bacitracin] ({Ileψ(thiazoline)Cys}-L[dE]IK[dOrn]I[dF]H[dD]N; lactam 4-C)
feed efficiency (in words) [1]: moderate improvements in feed efficiencies | growth rate (in words) [1]: slight improvements in growth rates | Average 4 Week Performance: Feed Efficiency [1]: 1.746 | Average 4 Week Performance: Gain [1]: 741.3 g | Improved Response Over Basal Ration: Feed Efficiency [1]: +3.1% | Improved Response Over Basal Ration: Gain [1]: +1.2% | Average 4 Week Performance: Feed Efficiency [2]: 1.739 | Average 4 Week Performance: Gain [2]: 703.6 g | Improved Response Over Basal Ration: Feed Efficiency [2]: +1.2% | Improved Response Over Basal Ration: Gain [2]: -2.3% | Average 4 Week Performance: Feed Efficiency [3]: 1.721 | Average 4 Week Performance: Gain [3]: 694.5 gms

O=[N+]([O-])c1ccc(C=Cc2nc(Nc3ccccc3)c3ccccc3n2)o1 [Example IV, 2-[2-(5-nitro-2-furyl)vinyl]-4-anilinoquinazoline]
inhibition of growth at 0.007 ppm (Salmonella gallinarum; 0.007 ppm): 0% | inhibition of growth at 0.01 ppm (Salmonella gallinarum; 0.01 ppm): 0% | inhibition of growth at 0.03 ppm (Salmonella gallinarum; 0.03 ppm): 0% | inhibition of growth at 0.06 ppm (Salmonella gallinarum; 0.06 ppm): 0% | inhibition of growth at 0.125 ppm (Salmonella gallinarum; 0.125 ppm): 0% | inhibition of growth at 0.25 ppm (Salmonella gallinarum; 0.25 ppm): 100% | inhibition of growth at 0.5 ppm (Salmonella gallinarum; 0.5 ppm): 100% | inhibition of growth at 1 ppm (Salmonella gallinarum; 1 ppm): 100% | inhibition of growth at 2 ppm (Salmonella gallinarum; 2 ppm): 100% | inhibition of growth at 4 ppm (Salmonella gallinarum; 4 ppm): 100% | effectiveness compared with chlortetracycline (in words) (Streptococcus group E): considerably more effective | effectiveness compared with chlortetracycline (in words) [4]: considerably more effective | inhibition of growth at 0.007 ppm (Salmonella cholerasuis; 0.007 ppm): 0% | inhibition of growth at 0.01 ppm (Salmonella cholerasuis; 0.01 ppm): 0% | inhibition of growth at 0.03 ppm (Salmonella cholerasuis; 0.03 ppm): 0% | inhibition of growth at 0.06 ppm (Salmonella cholerasuis; 0.06 ppm): 0% | inhibition of growth at 0.125 ppm (Salmonella cholerasuis; 0.125 ppm): 0% | inhibition of growth at 0.25 ppm (Salmonella cholerasuis; 0.25 ppm): 0% | inhibition of growth at 0.5 ppm (Salmonella cholerasuis; 0.5 ppm): 0% | inhibition of growth at 1 ppm (Salmonella cholerasuis; 1 ppm): 50% | inhibition of growth at 2 ppm (Salmonella cholerasuis; 2 ppm): 50% | inhibition of growth at 4 ppm (Salmonella cholerasuis; 4 ppm): 50% | effectiveness compared with chlortetracycline (in words) (Vibrio coli): considerably more effective | effectiveness compared with chlortetracycline (in words) [5]: considerably more effective | effectiveness compared with chlortetracycline (in words) (Streptococcus agalactiae): considerably more effective | effectiveness compared with chlortetracycline (in words) (Streptococcus faecalis): considerably more effective

[O-][n+]1cc[n+]([O-])c2ccccc21 [Quinoxaline-1,4-dioxide, quinoxaline-1,4-dioxide]
feed efficiency (in words) [1]: improvement in feed efficiency | growth rate (in words) [1]: questionable effect on growth | Average 4 Week Performance: Feed Efficiency [1]: 1.709 | Average 4 Week Performance: Gain [1]: 740.8 g | Improved Response Over Basal Ration: Feed Efficiency [1]: +5.2% | Improved Response Over Basal Ration: Gain [1]: +1.1% | effect on feed efficiency (in words) ([6]; 25 g/T): did not have any apparent effect | growth response (in words) ([6]; 25 g/T): did not have any apparent effect | Average 4 Week Performance: Feed Efficiency [6, 7]: 1.550 | Average 4 Week Performance: Gain [6, 7]: 756.6 g | Improved Response Over Basal Ration: Feed Efficiency [6, 7]: +0.1% | Improved Response Over Basal Ration: Gain [6, 7]: -1.1%

Reference: patent US3970648A, “2-[2-(5-Nitro-2-furyl)vinyl]-4-(anilino)quinazolines” (Diamond Shamrock Corporation, priority 1974, dated 1976)
